For orientation: IC50 means the concentration that inhibits the measured activity by half.

Molecules are shown by their SMILES.

The target in this experiment is T1, PDE4B (Homo sapiens, UniProt Q07343).
T1 construct: active site fragment comprising the amino acids 152-484
T1 sequence (Q07343 324-656): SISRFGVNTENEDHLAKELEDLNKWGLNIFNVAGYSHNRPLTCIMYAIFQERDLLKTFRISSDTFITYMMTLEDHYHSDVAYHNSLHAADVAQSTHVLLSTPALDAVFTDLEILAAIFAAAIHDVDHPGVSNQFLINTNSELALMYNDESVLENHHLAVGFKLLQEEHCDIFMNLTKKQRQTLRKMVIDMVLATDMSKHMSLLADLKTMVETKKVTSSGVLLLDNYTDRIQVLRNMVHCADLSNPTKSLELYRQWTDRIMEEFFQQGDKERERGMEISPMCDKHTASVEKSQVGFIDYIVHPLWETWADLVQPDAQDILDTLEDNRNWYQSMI
As to the kind of experiment: PDE4B Scintillation Proximity (SPA) Assay. The experiment is classed as biochemical. Particulars: PDE4B active site fragment amino acids 152-484; [3H]cAMP; 30° C., one hour; read-out: Experimentally determined IC50-value for PDE4B inhibition. The text has this: The IC50-values of the compounds of the invention (Examples 1.1 to 1.47) with respect to their PDE4B-inhibiting ability have been determined with a Scintillation Proximity (SPA) Assay (GE Healthcare, No. TRKQ7090). The Scintillation Proximity (SPA) Assay is based on the detection of the different affinities of the cyclic 3′-5′adenosine monophosphate (cAMP, low affinity) and the linear 5′-adenosine monophosphate (AMP, high affinity) to yttrium-silicate-scintillator beads. The cAMP-specific phosphodiesterase (PDE) PDE4B cleaves the 3′-phosphodiester bond of the tritium-labelled-[^3H]cAMP to the [^3H]5′-AMP. This [^3H]5′-AMP associates with the scintillator beads because of their higher affinity and causes scintillations (light flashes) which can be measured in a Wallac Microbeta Scintillation Counter.
10 μl of a [^3H]cAMP-solution (0.05 μCi in H2O, 10-30 Ci/mmol) are added to 89 μl of a PDE4B-enzyme-solution (active site fragment comprising the amino acids 152-484; 0.15-0.18 ng) in assay buffer (50 mM Tris HCl pH 7.5; 8.3 mM MgCl2; 1,7 mM ethylene glyclol tetraacetic acid (EGTA); 0.25 mg/ml bovine serum albumin (BSA)) and this mixture is incubated at 30° C. for one hour
a) without the compound to be tested (in the presence of 1 μl dimethylsulfoxide (DMSO), corresponding to 1% DMSO) and b) in the presence of the compound to be tested in a concentration of 125 μM, 25 μM, 5 μM, 1 μM, 200 nM, 40 nM, 8 nM, 1.6 nM, 0.32 nM, 0.064 nM, 0.0128 nM (dilution series in 5er-steps beginning from 125 μM until 0.0128 nM, in the presence of 1% DMSO).
After this incubation the reaction is stopped by the addition of 50 μl of bead-solution (500 mg beads/35 ml H2O, 18 mM zinc sulfate). In the following 45 minutes the beads have the opportunity to form a sediment. After that the scintillations are measured in the scintillation counter. If the tested compound is able to inhibit the enzymatic activity of the PDE4B-enzyme, less [^3H]AMP depending on the concentration of the tested compound is produced and less scintillations are measurable. […] The IC50-value stands for the compound concentration at which the PDE4B enzyme activity is inhibited to a half maximal value. Therefore the lower the IC50-value is the better is the PDE4B inhibition.
In the case of `Cn1c(C2CCN(c3nc4c(c(NC5CCOCC5)n3)[S+]([O-])CC4)CC2)nc2cnccc21` (stereo not drawn) [Example 1.30, {2-[4-(1-methyl-1H-imidazo[4,5-c]pyridin-2-yl)-piperidin-1-yl]-5-oxo-6,7-dihydro-5H-5λ^4-thieno[3,2-d]pyrimidin-4-yl}-(tetrahydropyran-4-yl)-amine], the half-inhibitory concentration (IC50) amounted to 33.4 nM. The same measure for `Cn1cc(C2CCN(c3nc4c(c(NC5CCOCC5)n3)[S+]([O-])CC4)CC2)c2cc(C(C)(C)C)ccc21` (stereo not drawn) [Example 1.26, {2-[4-(5-tert-butyl-1-methyl-1H-indol-3-yl)-piperidin-1-yl]-5-oxo-6,7-dihydro-5H-5λ^4-thieno[3,2-d]pyrimidin-4-yl}-(tetrahydropyran-4-yl)-amine]: 38 nM; for `CC(C)(O)C1(Nc2nc(N3CCC(c4ccc(Cl)cc4)CC3)nc3c2[S+]([O-])CC3)CC1` (stereo not drawn) [Example 1.25, 2-(1-{2-[4-(4-chlorophenyl)-piperidin-1-yl]-5-oxo-6,7-dihydro-5H-5λ^4-thieno[3,2-d]pyrimidin-4-ylamino}-cyclopropyl)-propan-2-ol]: 1.8 nM.

On to `[O-][S+]1CCc2nc(N3CCC(c4ccc(Cl)cc4)CC3)nc(NC3CCOCC3)c21` (stereo not drawn) [Example 1.6, {2-[4-(4-chlorophenyl)-piperidin-1-yl]-5-oxo-6,7-dihydro-5H-5λ^4-thieno[3,2-d]pyrimidin-4-yl}-(tetrahydropyran-4-yl)-amine], for which the IC50 stood at 4.7 nM. For the compound `Cn1nc(C2CCN(c3nc4c(c(NC5CCOCC5)n3)[S+]([O-])CC4)CC2)cc1-c1ccco1` (stereo not drawn) [Example 1.27], the IC50 came to 21 nM. As to `O=C(O)c1ccc(OC2CCN(c3nc4c(c(NC5CCOCC5)n3)[S+]([O-])CC4)CC2)cc1` (stereo not drawn) [Example 1.24, 4-{1-[5-oxo-4-(tetrahydropyran-4-ylamino)-6,7-dihydro-5H-5λ^4-thieno[3,2-d]pyrimidin-2-yl]-piperidin-4-yloxy}-benzoic acid], the IC50 amounted to 7 nM. In the case of `CN1C[C@@H](Nc2nc(N3CCC(c4nc5ccccc5o4)CC3)nc3c2[S+]([O-])CC3)CCC1=O` (stereo partly drawn) [Example 1.16, (S)-5-[2-(4-benzoxazol-2-yl-piperidin-1-yl)-5-oxo-6,7-dihydro-5H-5λ^4-thieno[3,2-d]pyrimidin-4-ylamino]-1-methylpiperidin-2-one], the IC50 came out at 0.1 nM. Regarding `CN1C(=O)Nc2ccccc2C12CCN(c1nc3c(c(NC4(CO)CC4)n1)[S+]([O-])CC3)CC2` (stereo not drawn) [Example 1.7, 1-(4-(1-hydroxymethylcyclopropylamino)-5-oxo-6,7-dihydro-5H-5λ^4-thieno[3,2-d]pyrimidin-2-yl)-3′-methyl-1′H-spiro[piperidin-4,4′-quinazolin]-2′(3′H)-one], the IC50 was > 10000 nM. For the compound `CC(C)[C@H](CO)Nc1nc(N2CCC(c3nc(-c4ccncc4)no3)CC2)nc2c1[S+]([O-])CC2` (stereo partly drawn) [Example 1.21, (R)-3-methyl-2-{5-oxo-2-[4-(3-pyridin-4-yl-[1,2,4]oxadiazol-5-yl)-piperidin-1-yl]-6,7-dihydro-5H-5λ^4-thieno[3,2-d]pyrimidin-4-ylamino}-butan-1-ol], the IC50 is > 10000 nM. `CN1C[C@@H](Nc2nc(N3CCC(Oc4ccc(C5=NCCO5)cc4)CC3)nc3c2[S+]([O-])CC3)CCC1=O` (stereo partly drawn) [Example 1.28, (S)-5-(2-{4-[4-(4,5-dihydrooxazol-2-yl)-phenoxy]-piperidin-1-yl}-5-oxo-6,7-dihydro-5H-5λ^4-thieno[3,2-d]pyrimidin-4-ylamino)-1-methylpiperidin-2-one]: the IC50 stood at 0.19 nM.

Regarding `[O-][S+]1CCc2nc(N3CCC(Oc4ccncc4)CC3)nc(NC3CCOCC3)c21` (stereo not drawn) [Example 1.34, {5-oxo-2-[4-(pyridin-4-yloxy)-piperidin-1-yl]-6,7-dihydro-5H-5λ^4-thieno[3,2-d]pyrimidin-4-yl}-(tetrahydropyran-4-yl)-amine], the IC50 was found to be 8 nM.

As for `[O-][S+]1CCc2nc(N3CCC(c4ccc(F)cc4F)CC3)nc(NC3(CO)CC3)c21` (stereo not drawn) [Example 1.14, (1-{2-[4-(2,4-difluorophenyl)-piperidin-1-yl]-5-oxo-6,7-dihydro-5H-5λ^4-thieno[3,2-d]pyrimidin-4-ylamino}-cyclopropyl)-methanol], the IC50 amounted to 16 nM.

For `Cc1oc(C2CCN(c3nc4c(c(N[C@H]5CCC(=O)N(C)C5)n3)[S+]([O-])CC4)CC2)nc1-c1ccccc1` (stereo partly drawn) [Example 1.36, (S)-1-methyl-5-{2-[4-(5-methyl-4-phenyloxazol-2-yl)-piperidin-1-yl]-5-oxo-6,7-dihydro-5H-5λ^4-thieno[3,2-d]pyrimidin-4-ylamino}-piperidin-2-one], the IC50 amounted to 0.4 nM. In the case of `COC1(c2ccc(Cl)cc2)CCN(c2nc3c(c(NC4CCOCC4)n2)[S+]([O-])CC3)CC1` (stereo not drawn) [Example 1.42, {2-[4-(4-chlorophenyl)-4-methoxypiperidin-1-yl]-5-oxo-6,7-dihydro-5H-5λ^4-thieno[3,2-d]pyrimidin-4-yl}-(tetrahydropyran-4-yl)-amine], the IC50 turned out to be 3.8 nM. For `CN(C(=O)c1ccc(OC2CCN(c3nc4c(c(NC5CCOCC5)n3)[S+]([O-])CC4)CC2)cc1)C1CC1` (stereo not drawn) [Example 1.33, N-cyclopropyl-N-methyl-4-{1-[5-oxo-4-(tetrahydropyran-4-ylamino)-6,7-dihydro-5H-5λ^4-thieno[3,2-d]pyrimidin-2-yl]-piperidin-4-yloxy}-benzamide], the IC50 came to 7.5 nM.

Take `COCC(=O)NCC1(c2ccccc2)CCN(c2nc3c(c(NC4CCOCC4)n2)[S+]([O-])CC3)CC1` (stereo not drawn) [Example 1.31, 2-methoxy-N-{1-[5-oxo-4-(tetrahydropyran-4-ylamino)-6,7-dihydro-5H-5λ^4-thieno[3,2-d]pyrimidin-2-yl]-4-phenylpiperidin-4-ylmethyl}-acetamide]: the IC50 was determined as 5.7 nM. As to `[O-][S+]1CCc2nc(N3CCC(c4nc(-c5ccncc5)no4)CC3)nc(Nc3cccc(F)c3)c21` (stereo not drawn) [Example 1.20, (3-fluorophenyl)-{5-oxo-2-[4-(3-pyridin-4-yl-[1,2,4]oxadiazol-5-yl)-piperidin-1-yl]-6,7-dihydro-5H-5λ^4-thieno[3,2-d]pyrimidin-4-yl}-amine], the IC50 is 2.7 nM. With `[O-][S+]1CCc2nc(N3CCC(c4noc5cc(F)ccc45)CC3)nc(NC3(CO)CC3)c21` (stereo not drawn) [Example 1.17, (1-{2-[4-(6-fluorobenzo[d]isoxazol-3-yl)-piperidin-1-yl]-5-oxo-6,7-dihydro-5H-5λ^4-thieno[3,2-d]pyrimidin-4-ylamino}-cyclopropyl)-methanol], the IC50 was found to be 2.73 nM.

As for `CC(C)(O)[C@H](Nc1nc(N2CCC(c3ccc(Cl)cc3)CC2)nc2c1[S+]([O-])CC2)c1ccc(F)cc1` (stereo partly drawn) [Example 1.4, (R)-1-{2-[4-(4-chlorophenyl)-piperidin-1-yl]-5-oxo-6,7-dihydro-5H-5λ^4-thieno[3,2-d]pyrimidin-4-ylamino}-1-(4-fluorophenyl)-2-methylpropan-2-ol], the IC50 was found to be 15.3 nM.

On to `CN1C[C@@H](Nc2nc(N3CCC(C#N)(c4ccccc4)CC3)nc3c2[S+]([O-])CC3)CCC1=O` (stereo partly drawn) [Example 1.10, 1-[4-((S)-1-methyl-6-oxopiperidin-3-ylamino)-5-oxo-6,7-dihydro-5H-5λ^4-thieno[3,2-d]pyrimidin-2-yl]-4-phenylpiperidin-4-carbonitrile], for which the IC50 stood at 3.5 nM.

Regarding `CCc1[nH]c2ccc(F)cc2c1C1CCN(c2nc3c(c(NC4(CO)CC4)n2)[S+]([O-])CC3)CC1` (stereo not drawn) [Example 1.9, (1-{2-[4-(2-ethyl-5-fluoro-1H-indol-3-yl)-piperidin-1-yl]-5-oxo-6,7-dihydro-5H-5λ^4-thieno[3,2-d]pyrimidin-4-ylamino}-cyclopropyl)-methanol], the IC50 was determined as 53.8 nM.

For `[O-][S+]1CCc2nc(N3CCC(c4noc5ccccc45)CC3)nc(NC3(CO)CC3)c21` (stereo not drawn) [Example 1.8, {1-[2-(4-benzo[d]isoxazol-3-yl-piperidin-1-yl)-5-oxo-6,7-dihydro-5H-5λ^4-thieno[3,2-d]pyrimidin-4-ylamino]-cyclopropyl}-methanol], the IC50 worked out at 1.9 nM.

For `[O-][S+]1CCc2nc(N3CCC(c4ccncc4)CC3)nc(Nc3cccc(F)c3)c21` (stereo not drawn) [Example 1.12, (3-fluorophenyl)-[5-oxo-2-(3,4,5,6-tetrahydro-2H-[4,4′]bipyridinyl-1-yl)-6,7-dihydro-5H-5λ^4-thieno[3,2-d]pyrimidin-4-yl]-amine], the IC50 is > 10000 nM. As to `CCC[C@H](CO)Nc1nc(N2CCC(c3ccc(Cl)cc3)CC2)nc2c1[S+]([O-])CC2` (stereo partly drawn) [Example 1.3, (R)-2-{2-[4-(4-chlorophenyl)-piperidin-1-yl]-5-oxo-6,7-dihydro-5H-5λ^4-thieno[3,2-d]pyrimidin-4-ylamino}-pentan-1-ol], the IC50 turned out to be 8.3 nM.

The record behind these values is patent publication US20140228286A1, “SPECIFIC PDE4B-INHIBITORS FOR THE TREATMENT OF DIABETES MELLITUS” (BOEHRINGER INGELHEIM INTERNATIONAL GMBH, priority 2013, published 2014).
